Test results published in ChEMBL document CHEMBL4028801, “A multifactorial approach to hepatobiliary transporter assessment enables improved therapeutic compound development” (Toxicol Sci, 2013).
Where a name gives a salt, the structure may show the parent alone.

Columns and labels:
Bile salt export pump = Bile salt export pump (Homo sapiens, UniProt O95342); test: Inhibition of human BSEP overexpressed in Sf9 cell membrane vesicles assessed as uptake of [3H]-taurocholate in presence of ATP measured after 15 to 20 mins by membrane vesicle transport assay; type: ADME, cell-based
[1] = target: ATP-binding cassette sub-family C member 3 (Homo sapiens, UniProt O15438); test: Inhibition of human MRP3 overexpressed in Sf9 insect cell membrane vesicles assessed as uptake of [3H]-estradiol-17beta-D-glucuronide in presence of ATP and GSH measured after 10 mins by membrane vesicle transport assay; type: ADME, cell-based
[2] = target: ATP-binding cassette sub-family C member 2 (Homo sapiens, UniProt Q92887); test: Inhibition of human MRP2 overexpressed in Sf9 cell membrane vesicles assessed as uptake of [3H]-estradiol-17beta-D-glucuronide in presence of ATP and GSH measured after 20 mins by membrane vesicle transport assay
[3] = target: T1, ATP-binding cassette sub-family C member 4 (Homo sapiens, UniProt O15439); test: Inhibition of human MRP4 overexpressed in Sf9 cell membrane vesicles assessed as uptake of [3H]-estradiol-17beta-D-glucuronide in presence of ATP and GSH measured after 20 mins by membrane vesicle transport assay; type: ADME, cell-based
T1 sequence (O15439 whole entry): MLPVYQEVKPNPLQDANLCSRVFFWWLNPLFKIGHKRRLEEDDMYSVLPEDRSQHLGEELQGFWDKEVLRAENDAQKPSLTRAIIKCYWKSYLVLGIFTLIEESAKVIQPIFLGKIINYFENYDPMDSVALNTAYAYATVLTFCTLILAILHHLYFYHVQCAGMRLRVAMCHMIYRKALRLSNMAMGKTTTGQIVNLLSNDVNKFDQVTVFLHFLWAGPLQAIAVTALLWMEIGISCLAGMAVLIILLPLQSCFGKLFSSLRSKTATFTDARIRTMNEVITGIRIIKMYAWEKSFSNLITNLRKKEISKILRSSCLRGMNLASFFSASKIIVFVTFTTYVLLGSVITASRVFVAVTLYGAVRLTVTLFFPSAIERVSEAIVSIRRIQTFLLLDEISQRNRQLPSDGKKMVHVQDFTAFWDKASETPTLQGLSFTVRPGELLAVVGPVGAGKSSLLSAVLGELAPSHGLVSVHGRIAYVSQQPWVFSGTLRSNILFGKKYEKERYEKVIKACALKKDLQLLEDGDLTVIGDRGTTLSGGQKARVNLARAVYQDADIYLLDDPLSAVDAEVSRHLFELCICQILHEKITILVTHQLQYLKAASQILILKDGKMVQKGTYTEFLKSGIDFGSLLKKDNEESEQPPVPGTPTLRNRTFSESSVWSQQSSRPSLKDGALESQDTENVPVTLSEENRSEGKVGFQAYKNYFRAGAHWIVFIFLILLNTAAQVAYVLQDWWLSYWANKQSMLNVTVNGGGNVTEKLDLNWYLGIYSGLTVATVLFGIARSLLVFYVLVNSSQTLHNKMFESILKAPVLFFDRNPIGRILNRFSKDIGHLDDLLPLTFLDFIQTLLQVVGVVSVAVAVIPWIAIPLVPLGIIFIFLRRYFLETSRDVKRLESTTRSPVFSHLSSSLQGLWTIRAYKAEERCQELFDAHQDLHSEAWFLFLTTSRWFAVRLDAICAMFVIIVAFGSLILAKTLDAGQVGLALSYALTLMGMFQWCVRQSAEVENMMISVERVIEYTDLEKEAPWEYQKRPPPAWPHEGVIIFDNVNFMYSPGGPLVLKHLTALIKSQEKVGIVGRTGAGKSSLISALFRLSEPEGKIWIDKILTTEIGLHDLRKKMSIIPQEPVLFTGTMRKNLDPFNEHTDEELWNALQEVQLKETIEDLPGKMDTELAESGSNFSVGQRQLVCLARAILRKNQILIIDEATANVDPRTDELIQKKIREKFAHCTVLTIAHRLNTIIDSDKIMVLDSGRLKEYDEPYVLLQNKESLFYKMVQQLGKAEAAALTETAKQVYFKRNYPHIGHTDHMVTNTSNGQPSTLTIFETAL

Bile salt export pump, sequence (O95342 whole entry): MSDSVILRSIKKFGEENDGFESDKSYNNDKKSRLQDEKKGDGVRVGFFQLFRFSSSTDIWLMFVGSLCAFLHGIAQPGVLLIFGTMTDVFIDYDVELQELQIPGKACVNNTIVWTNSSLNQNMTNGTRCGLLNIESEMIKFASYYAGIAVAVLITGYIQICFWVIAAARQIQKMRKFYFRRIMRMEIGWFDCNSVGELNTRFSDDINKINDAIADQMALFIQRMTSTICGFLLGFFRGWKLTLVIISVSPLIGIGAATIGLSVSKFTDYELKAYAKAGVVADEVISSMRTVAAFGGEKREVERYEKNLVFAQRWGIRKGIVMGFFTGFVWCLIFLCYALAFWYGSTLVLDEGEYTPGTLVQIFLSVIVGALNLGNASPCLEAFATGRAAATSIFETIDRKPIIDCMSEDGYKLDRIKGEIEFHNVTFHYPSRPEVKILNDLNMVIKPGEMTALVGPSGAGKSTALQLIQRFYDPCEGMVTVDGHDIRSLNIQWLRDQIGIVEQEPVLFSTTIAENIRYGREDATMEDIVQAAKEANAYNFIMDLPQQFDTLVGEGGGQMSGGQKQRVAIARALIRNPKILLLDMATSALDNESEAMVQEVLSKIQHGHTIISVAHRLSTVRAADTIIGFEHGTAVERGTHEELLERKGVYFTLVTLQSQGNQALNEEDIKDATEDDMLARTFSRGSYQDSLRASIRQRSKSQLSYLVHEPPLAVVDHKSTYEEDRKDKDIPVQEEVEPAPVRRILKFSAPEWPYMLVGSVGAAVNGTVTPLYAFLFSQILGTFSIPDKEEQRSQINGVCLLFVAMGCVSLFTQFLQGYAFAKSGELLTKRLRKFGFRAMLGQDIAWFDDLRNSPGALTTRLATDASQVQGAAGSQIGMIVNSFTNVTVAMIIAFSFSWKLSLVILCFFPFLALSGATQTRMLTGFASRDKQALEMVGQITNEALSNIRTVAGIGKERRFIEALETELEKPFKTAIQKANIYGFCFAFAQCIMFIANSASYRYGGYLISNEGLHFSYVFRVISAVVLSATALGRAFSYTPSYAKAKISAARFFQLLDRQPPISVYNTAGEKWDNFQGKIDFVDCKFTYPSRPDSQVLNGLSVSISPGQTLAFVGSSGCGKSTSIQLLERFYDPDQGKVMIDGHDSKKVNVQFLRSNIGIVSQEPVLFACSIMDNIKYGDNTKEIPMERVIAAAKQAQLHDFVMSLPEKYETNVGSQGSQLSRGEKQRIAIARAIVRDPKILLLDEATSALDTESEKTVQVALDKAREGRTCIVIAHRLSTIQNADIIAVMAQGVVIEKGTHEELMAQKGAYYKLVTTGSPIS
ATP-binding cassette sub-family C member 2, sequence (Q92887 whole entry): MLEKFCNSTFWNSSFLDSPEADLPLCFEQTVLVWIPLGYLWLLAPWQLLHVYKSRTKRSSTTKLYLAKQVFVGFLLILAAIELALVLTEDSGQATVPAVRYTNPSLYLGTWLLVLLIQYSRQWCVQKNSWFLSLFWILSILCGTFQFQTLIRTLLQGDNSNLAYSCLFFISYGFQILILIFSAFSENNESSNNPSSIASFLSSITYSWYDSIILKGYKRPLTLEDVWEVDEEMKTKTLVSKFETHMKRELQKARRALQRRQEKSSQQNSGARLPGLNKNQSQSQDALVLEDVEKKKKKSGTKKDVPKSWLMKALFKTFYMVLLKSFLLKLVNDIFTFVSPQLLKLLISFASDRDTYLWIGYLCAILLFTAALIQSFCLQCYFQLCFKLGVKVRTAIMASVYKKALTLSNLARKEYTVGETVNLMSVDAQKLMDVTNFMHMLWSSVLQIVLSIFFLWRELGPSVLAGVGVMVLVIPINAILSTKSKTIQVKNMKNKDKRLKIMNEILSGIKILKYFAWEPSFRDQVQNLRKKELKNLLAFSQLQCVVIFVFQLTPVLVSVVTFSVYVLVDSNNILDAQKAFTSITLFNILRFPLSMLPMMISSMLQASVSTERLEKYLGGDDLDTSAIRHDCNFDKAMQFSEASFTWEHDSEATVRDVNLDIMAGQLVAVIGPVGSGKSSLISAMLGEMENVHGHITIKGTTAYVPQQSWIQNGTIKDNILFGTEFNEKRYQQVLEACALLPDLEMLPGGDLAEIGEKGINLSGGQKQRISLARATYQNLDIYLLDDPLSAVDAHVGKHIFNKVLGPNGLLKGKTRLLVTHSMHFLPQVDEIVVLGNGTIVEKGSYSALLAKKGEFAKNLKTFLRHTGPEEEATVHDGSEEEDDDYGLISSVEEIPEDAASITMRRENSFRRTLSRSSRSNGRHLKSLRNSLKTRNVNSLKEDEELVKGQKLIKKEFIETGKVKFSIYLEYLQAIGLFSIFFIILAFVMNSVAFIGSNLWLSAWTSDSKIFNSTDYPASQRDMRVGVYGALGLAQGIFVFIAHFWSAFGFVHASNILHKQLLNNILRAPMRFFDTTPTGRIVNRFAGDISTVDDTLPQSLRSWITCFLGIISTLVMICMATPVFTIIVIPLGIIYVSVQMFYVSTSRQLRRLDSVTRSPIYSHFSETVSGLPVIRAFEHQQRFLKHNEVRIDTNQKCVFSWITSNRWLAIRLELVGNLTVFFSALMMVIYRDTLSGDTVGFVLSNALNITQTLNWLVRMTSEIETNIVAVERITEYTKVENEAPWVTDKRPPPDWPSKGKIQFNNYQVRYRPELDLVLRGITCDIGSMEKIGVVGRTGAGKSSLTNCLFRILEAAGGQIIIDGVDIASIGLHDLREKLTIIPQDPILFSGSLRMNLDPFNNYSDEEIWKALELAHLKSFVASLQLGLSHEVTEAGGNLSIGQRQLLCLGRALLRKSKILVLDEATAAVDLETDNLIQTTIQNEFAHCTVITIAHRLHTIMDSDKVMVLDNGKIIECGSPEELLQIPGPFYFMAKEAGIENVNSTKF
ATP-binding cassette sub-family C member 3, sequence (O15438 whole entry): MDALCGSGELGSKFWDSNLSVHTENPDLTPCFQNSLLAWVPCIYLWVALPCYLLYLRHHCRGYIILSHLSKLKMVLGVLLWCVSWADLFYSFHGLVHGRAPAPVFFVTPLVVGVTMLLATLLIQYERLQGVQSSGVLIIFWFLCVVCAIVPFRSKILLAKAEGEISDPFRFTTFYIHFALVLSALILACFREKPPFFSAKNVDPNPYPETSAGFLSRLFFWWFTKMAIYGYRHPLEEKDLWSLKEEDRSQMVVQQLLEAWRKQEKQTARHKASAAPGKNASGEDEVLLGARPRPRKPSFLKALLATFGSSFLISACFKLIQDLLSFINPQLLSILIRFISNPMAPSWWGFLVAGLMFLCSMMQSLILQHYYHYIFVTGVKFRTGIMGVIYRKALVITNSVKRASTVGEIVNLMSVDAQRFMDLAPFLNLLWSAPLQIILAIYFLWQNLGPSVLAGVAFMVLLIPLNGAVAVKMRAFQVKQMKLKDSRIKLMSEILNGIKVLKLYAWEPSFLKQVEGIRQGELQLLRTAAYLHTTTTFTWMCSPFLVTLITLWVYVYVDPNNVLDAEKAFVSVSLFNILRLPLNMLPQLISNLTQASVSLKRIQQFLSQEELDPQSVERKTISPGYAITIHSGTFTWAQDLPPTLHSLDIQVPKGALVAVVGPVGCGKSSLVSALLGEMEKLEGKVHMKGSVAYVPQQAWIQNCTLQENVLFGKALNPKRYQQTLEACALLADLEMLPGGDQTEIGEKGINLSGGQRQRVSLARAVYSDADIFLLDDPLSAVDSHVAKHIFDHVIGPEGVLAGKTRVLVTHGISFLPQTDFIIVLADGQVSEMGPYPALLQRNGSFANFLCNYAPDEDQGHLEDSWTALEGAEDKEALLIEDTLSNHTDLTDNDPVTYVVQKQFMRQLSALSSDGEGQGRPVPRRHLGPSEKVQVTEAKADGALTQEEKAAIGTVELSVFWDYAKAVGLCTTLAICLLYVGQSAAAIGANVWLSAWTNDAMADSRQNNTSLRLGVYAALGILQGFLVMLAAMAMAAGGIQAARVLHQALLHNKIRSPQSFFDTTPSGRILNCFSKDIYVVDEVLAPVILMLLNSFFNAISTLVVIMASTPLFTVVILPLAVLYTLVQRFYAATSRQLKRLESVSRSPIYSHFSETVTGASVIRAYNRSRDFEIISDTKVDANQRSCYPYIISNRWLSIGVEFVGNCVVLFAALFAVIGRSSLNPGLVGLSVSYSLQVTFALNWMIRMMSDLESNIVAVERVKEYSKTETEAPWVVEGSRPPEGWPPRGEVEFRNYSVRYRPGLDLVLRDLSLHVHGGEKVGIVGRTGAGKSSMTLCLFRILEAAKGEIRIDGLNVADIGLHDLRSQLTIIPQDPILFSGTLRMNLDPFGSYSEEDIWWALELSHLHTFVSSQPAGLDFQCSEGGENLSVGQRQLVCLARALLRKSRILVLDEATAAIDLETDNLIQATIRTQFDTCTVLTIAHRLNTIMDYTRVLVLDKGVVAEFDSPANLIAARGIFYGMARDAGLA

Row | Molecule | IC50 (Bile salt export pump) [µM] | IC50 [1] [µM] | IC50 [2] [µM] | IC50 [3] [µM]
1 | CCCN(CCC)S(=O)(=O)c1ccc(C(=O)O)cc1 [PROBENECID] | > 133 | > 133 | > 133 | > 133
2 | enfuvirtide | > 133 | > 133 | > 133 | 7.5
3 | c1cnc(N2CCN(Cc3ccc4c(c3)OCO4)CC2)nc1 [PIRIBEDIL] | > 133 | > 133 | > 133 | > 133
4 | Cc1cc(NS(=O)(=O)c2ccc(N)cc2)no1 [SULFAMETHOXAZOLE] | > 133 | > 133 | > 133 | > 133
5 | C[C@H]1COc2c(N3CCN(C)CC3)c(F)cc3c(=O)c(C(=O)O)cn1c23 [LEVOFLOXACIN] | > 133 | > 133 | > 133 | > 133
6 | CC1(C)O[C@@H]2[C@@H](CO[C@@]3(COS(N)(=O)=O)OC(C)(C)O[C@@H]23)O1 [TOPIRAMATE] | > 133 | > 133 | > 133 | > 133
7 | C[C@H]1CN(C[C@H](Cc2ccccc2)C(=O)NCC(=O)O)CC[C@@]1(C)c1cccc(O)c1 [ALVIMOPAN] | > 133 | > 133 | > 133 | > 133
8 | CN(C)CCOc1ccc(/C(=C(/CCCl)c2ccccc2)c2ccccc2)cc1 [TOREMIFENE CITRATE] | 115 | > 133 | > 133 | > 133
9 | O=NN(CCCl)C(=O)NC1CCCCC1 [LOMUSTINE] | > 133 | > 133 | > 133 | > 133
10 | CN1C(C(=O)Nc2ccccn2)=C(O)c2sc(Cl)cc2S1(=O)=O [LORNOXICAM] | 7.56 | > 133 | > 133 | > 133
11 | CN1CCN(C(=O)O[C@H]2c3nccnc3C(=O)N2c2ccc(Cl)cn2)CC1 [ESZOPICLONE] | > 133 | > 133 | > 133 | > 133
12 | CCN(CC)CCNC(=O)c1cc(Cl)c(N)cc1OC [METOCLOPRAMIDE] | > 133 | > 133 | > 133 | > 133
13 | CCCCC(=O)N(Cc1ccc(-c2ccccc2-c2nnn[nH]2)cc1)[C@H](C(=O)O)C(C)C | > 133 | > 133 | > 133 | > 133
14 | O=C(CCCCCCC(=O)Nc1ccccc1)NO [VORINOSTAT] | > 133 | > 133 | > 133 | > 133
15 | NS(=O)(=O)Cc1noc2ccccc12 [ZONISAMIDE] | > 133 | > 133 | > 133 | > 133
16 | COc1ccc2[nH]cc(CCNC(C)=O)c2c1 [MELATONIN] | > 133 | > 133 | > 133 | > 133
17 | C[C@@](Cc1ccc(O)c(O)c1)(NN)C(=O)O [CARBIDOPA ANHYDROUS] | > 133 | > 133 | > 133 | > 133
18 | COc1cc2c3cc1Oc1cc(ccc1O)C[C@@H]1c4c(cc(OC)c(O)c4Oc4ccc(cc4)C[C@@H]3N(C)CC2)CC[N+]1(C)C [TUBOCURARINE] | > 133 | > 133 | > 133 | 9.6
19 | COc1cc2nc(N3CCN(C(=O)C4CCCO4)CC3)nc(N)c2cc1OC (centres undefined) [TERAZOSIN] | > 133 | > 133 | > 133 | 36.8
20 | O=C(O)P(=O)(O)O [FOSCARNET SODIUM] | > 133 | > 133 | > 133 | > 133
21 | Clc1cccc(N2CCNCC2)c1 [CHLOROPHENYLPIPERAZINE] | > 133 | > 133 | > 133 | > 133

Row | Molecule | IC50 (Bile salt export pump) [µM] | IC50 [1] [µM] | IC50 [2] [µM] | IC50 [3] [µM]
22 | COc1cc(Cc2cnc(N)nc2N)cc(OC)c1OC [TRIMETHOPRIM] | > 133 | > 133 | > 133 | > 133
23 | Cc1cc(NC(=O)C2=C(O)c3ccccc3S(=O)(=O)N2C)no1 [ISOXICAM] | > 133 | > 133 | > 133 | > 133
24 | CC(c1cc2ccccc2s1)N(O)C(N)=O (centres undefined) [ZILEUTON] | > 133 | > 133 | > 133 | > 133
25 | CN(C)c1cc(NC(=O)CNC(C)(C)C)c(O)c2c1C[C@H]1C[C@H]3[C@H](N(C)C)C(O)=C(C(N)=O)C(=O)[C@@]3(O)C(O)=C1C2=O [TIGECYCLINE] | > 133 | > 133 | > 133 | > 133
26 | CN1C(=O)CC(=O)N(c2ccccc2)c2cc(Cl)ccc21 [CLOBAZAM] | > 133 | > 133 | > 133 | > 133
27 | Cc1nnc(C(C)C)n1[C@@H]1C[C@H]2CC[C@@H](C1)N2CC[C@H](NC(=O)C1CCC(F)(F)CC1)c1ccccc1 [MARAVIROC] | 110 | > 133 | > 133 | > 133
28 | Cc1noc(NS(=O)(=O)c2ccc(N)cc2)c1C [SULFISOXAZOLE] | > 133 | > 133 | > 133 | > 133
29 | CN(C)CCC(c1ccc(Cl)cc1)c1ccccn1 (centres undefined) [CHLORPHENIRAMINE] | > 133 | > 133 | > 133 | > 133
30 | CNC1(c2ccccc2Cl)CCCCC1=O (centres undefined) [KETAMINE] | > 133 | > 133 | > 133 | > 133
31 | C=CC[N+]1([C@H]2C[C@H]3[C@@H]4CC[C@H]5C[C@H](O)[C@@H](N6CCOCC6)C[C@]5(C)[C@H]4CC[C@]3(C)[C@H]2OC(C)=O)CCCC1 [ROCURONIUM BROMIDE] | > 133 | > 133 | > 133 | > 133
32 | CCC(=O)O[C@]1(C(=O)SCF)[C@H](C)C[C@H]2[C@@H]3C[C@H](F)C4=CC(=O)C=C[C@]4(C)[C@@]3(F)[C@@H](O)C[C@@]21C [FLUTICASONE PROPIONATE] | > 133 | > 133 | > 133 | > 133
33 | C=CC1=C(C(=O)O)N2C(=O)[C@@H](NC(=O)/C(=N\O)c3csc(N)n3)[C@H]2SC1 | > 133 | > 133 | > 133 | 11.6
34 | CN(Cc1cnc2nc(N)nc(N)c2n1)c1ccc(C(=O)N[C@@H](CCC(=O)O)C(=O)O)cc1 [METHOTREXATE] | > 133 | > 133 | > 133 | > 133
35 | O=c1[nH]cc(F)c(=O)[nH]1 [FLUOROURACIL] | > 133 | > 133 | > 133 | > 133
36 | CC(C)C(=O)Oc1ccc(CO)cc1[C@H](CCN(C(C)C)C(C)C)c1ccccc1 [FESOTERODINE FUMARATE] | > 133 | > 133 | > 133 | > 133
37 | Cc1cnc(C(=O)O)c[n+]1[O-] [ACIPIMOX] | > 133 | > 133 | > 133 | > 133
38 | CCn1cc(C(=O)O)c(=O)c2cc(F)c(N3CCNCC3)nc21 [ENOXACIN] | > 133 | > 133 | > 133 | > 133
39 | CC(CN1c2ccccc2Sc2ccccc21)N(C)C (centres undefined) [PROMETHAZINE] | > 133 | > 133 | > 133 | > 133
40 | Cc1cc(=O)n(-c2ccccc2)n1C [ANTIPYRINE] | > 133 | > 133 | > 133 | > 133
41 | Oc1c(I)cc(Cl)c2cccnc12 [CLIOQUINOL] | > 133 | > 133 | > 133 | > 133
